Test results: ChEMBL document CHEMBL1201862, “PubChem BioAssay data set” (2004)
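Step 1: Grow cells in 96-well plates. Step 2: Expose to compound for 48 hours at 5 concentrations. Step 3: Interpolate endpoints linearly; if unreached, use highest concentration. The concentration for 50% growth inhibition is given as GI50.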 Calls of active or inactive are those of the source. No stated cut-off is given here; in the data, active = GI50 up to about 1.1 µM and inactive = higher.

Assays:
Test in all cases: NCI-60 cell line screen, 48 h
[1] = test system: 786-0
[2] = test system: A498
[3] = test system: A549
[4] = test system: ACHN
[5] = test system: CAKI-1
[6] = test system: CCRF-CEM
[7] = test system: COLO 205
[8] = test system: DLD-1
[9] = test system: DMS-273
[10] = test system: EKVX
[11] = test system: HCC 2998
[12] = test system: HCT-116
[13] = test system: HCT-15
[14] = test system: HL-60
[15] = test system: HOP-18
[16] = test system: HOP-62
[17] = test system: HT-29
[18] = test system: IGROV-1
[19] = test system: K562
[20] = test system: KM-20L2
[21] = test system: KM12
[22] = test system: LOX IMVI
[23] = test system: LXFL 529
[24] = test system: M14
[25] = test system: M19-MEL
[26] = test system: MOLT-4
[27] = test system: Malme-3M
[28] = test system: NCI-H226
[29] = test system: NCI-H23
[30] = test system: NCI-H460
[31] = test system: NCI-H522
[32] = test system: OVCAR-3
[33] = test system: OVCAR-4
[34] = test system: OVCAR-5
[35] = test system: OVCAR-8
[36] = test system: RXF 393
[37] = test system: SF-268
[38] = test system: SF-295
[39] = test system: SF-539
[40] = test system: SK-MEL-28
[41] = test system: SK-MEL-2
[42] = test system: SK-MEL-5
[43] = test system: SK-OV-3
[44] = test system: SN12C
[45] = test system: SNB-19
[46] = test system: SNB-75
[47] = test system: SNB-78
[48] = test system: SR
[49] = test system: SW-620
[50] = test system: TK-10
[51] = test system: U-251
[52] = test system: UACC-257
[53] = test system: UACC-62
[54] = test system: UO-31
[55] = test system: XF498
[56] = test system: DMS-114
[57] = test system: RPMI-8226

CCOC(=N)CC(=O)Nc1ccc(Cl)cc1
GI50 [1]: > 100 µM (inactive) | GI50 [2]: > 100 µM (inactive) | GI50 [3]: > 100 µM (inactive) | GI50 [4]: > 100 µM (inactive) | GI50 [5]: > 100 µM (inactive) | GI50 [6]: > 100 µM (inactive) | GI50 [7]: > 100 µM (inactive) | GI50 [8]: > 100 µM (inactive) | GI50 [9]: > 100 µM (inactive) | GI50 [10]: > 100 µM (inactive) | GI50 [11]: > 100 µM (inactive) | GI50 [12]: > 100 µM (inactive) | GI50 [13]: > 100 µM | GI50 [14]: > 100 µM (inactive) | GI50 [15]: 1.73 µM (inactive) | GI50 [16]: > 100 µM (inactive) | GI50 [17]: > 100 µM (inactive) | GI50 [18]: > 100 µM (inactive) | GI50 [19]: > 100 µM (inactive) | GI50 [20]: > 100 µM (inactive) | GI50 [21]: > 100 µM (inactive) | GI50 [22]: > 100 µM (inactive) | GI50 [23]: > 100 µM (inactive) | GI50 [24]: > 100 µM (inactive) | GI50 [25]: > 100 µM (inactive) | GI50 [26]: > 100 µM (inactive) | GI50 [27]: > 100 µM (inactive) | GI50 [28]: > 100 µM (inactive) | GI50 [29]: > 100 µM (inactive) | GI50 [30]: > 100 µM (inactive) | GI50 [31]: > 100 µM (inactive) | GI50 [32]: > 100 µM (inactive) | GI50 [33]: > 100 µM (inactive) | GI50 [34]: > 100 µM (inactive) | GI50 [35]: > 100 µM (inactive) | GI50 [36]: > 100 µM (inactive) | GI50 [37]: > 100 µM (inactive) | GI50 [38]: > 100 µM (inactive) | GI50 [39]: > 100 µM (inactive) | GI50 [40]: > 100 µM (inactive) | GI50 [41]: > 100 µM (inactive) | GI50 [42]: > 100 µM (inactive) | GI50 [43]: > 100 µM (inactive) | GI50 [44]: > 100 µM (inactive) | GI50 [45]: > 100 µM (inactive) | GI50 [46]: > 100 µM (inactive) | GI50 [47]: > 100 µM (inactive) | GI50 [48]: > 100 µM (inactive) | GI50 [49]: > 100 µM (inactive) | GI50 [50]: > 100 µM (inactive) | GI50 [51]: > 100 µM (inactive) | GI50 [52]: > 100 µM (inactive) | GI50 [53]: > 100 µM (inactive) | GI50 [54]: > 100 µM (inactive) | GI50 [55]: > 100 µM (inactive)

C/C(CN1C(=O)c2ccccc2C1=O)=N\NS(=O)(=O)c1ccc(F)cc1
GI50 [1]: > 100 µM (inactive) | GI50 [2]: > 100 µM (inactive) | GI50 [3]: > 100 µM (inactive) | GI50 [4]: > 100 µM (inactive) | GI50 [5]: > 100 µM (inactive) | GI50 [6]: > 100 µM (inactive) | GI50 [7]: > 100 µM (inactive) | GI50 [8]: > 100 µM (inactive) | GI50 [56]: > 100 µM (inactive) | GI50 [9]: > 100 µM (inactive) | GI50 [10]: > 100 µM (inactive) | GI50 [11]: > 100 µM (inactive) | GI50 [12]: > 100 µM (inactive) | GI50 [13]: > 100 µM | GI50 [14]: > 100 µM (inactive) | GI50 [15]: > 100 µM (inactive) | GI50 [16]: > 100 µM (inactive) | GI50 [17]: > 100 µM (inactive) | GI50 [18]: > 100 µM (inactive) | GI50 [19]: > 100 µM (inactive) | GI50 [20]: > 100 µM (inactive) | GI50 [21]: > 100 µM (inactive) | GI50 [22]: > 100 µM (inactive) | GI50 [23]: > 100 µM (inactive) | GI50 [24]: > 100 µM (inactive) | GI50 [26]: > 100 µM (inactive) | GI50 [27]: > 100 µM (inactive) | GI50 [28]: > 100 µM (inactive) | GI50 [29]: > 100 µM (inactive) | GI50 [30]: > 100 µM (inactive) | GI50 [31]: > 100 µM (inactive) | GI50 [32]: > 100 µM (inactive) | GI50 [33]: > 100 µM (inactive) | GI50 [34]: > 100 µM (inactive) | GI50 [35]: > 100 µM (inactive) | GI50 [57]: > 100 µM (inactive) | GI50 [37]: > 100 µM (inactive) | GI50 [38]: > 100 µM (inactive) | GI50 [39]: > 100 µM (inactive) | GI50 [40]: > 100 µM (inactive) | GI50 [41]: > 100 µM (inactive) | GI50 [42]: > 100 µM (inactive) | GI50 [43]: > 100 µM (inactive) | GI50 [44]: > 100 µM (inactive) | GI50 [45]: > 100 µM (inactive) | GI50 [46]: > 100 µM (inactive) | GI50 [47]: > 100 µM (inactive) | GI50 [48]: > 100 µM (inactive) | GI50 [49]: > 100 µM (inactive) | GI50 [50]: > 100 µM (inactive) | GI50 [51]: > 100 µM (inactive) | GI50 [52]: > 100 µM (inactive) | GI50 [53]: > 100 µM (inactive) | GI50 [54]: > 100 µM (inactive) | GI50 [55]: > 100 µM (inactive)

O=C(O)CSc1nnc(-c2ccccc2)[nH]1
GI50 [1]: > 100 µM (inactive) | GI50 [2]: > 100 µM (inactive) | GI50 [3]: > 100 µM (inactive) | GI50 [4]: > 100 µM (inactive) | GI50 [5]: > 100 µM (inactive) | GI50 [6]: > 100 µM (inactive) | GI50 [7]: > 100 µM (inactive) | GI50 [8]: > 100 µM (inactive) | GI50 [9]: > 100 µM (inactive) | GI50 [10]: > 100 µM (inactive) | GI50 [11]: > 100 µM (inactive) | GI50 [13]: > 100 µM | GI50 [14]: > 100 µM (inactive) | GI50 [15]: > 100 µM (inactive) | GI50 [16]: > 100 µM (inactive) | GI50 [17]: > 100 µM (inactive) | GI50 [18]: > 100 µM (inactive) | GI50 [19]: > 100 µM (inactive) | GI50 [20]: > 100 µM (inactive) | GI50 [21]: > 100 µM (inactive) | GI50 [22]: > 100 µM (inactive) | GI50 [23]: > 100 µM (inactive) | GI50 [24]: > 100 µM (inactive) | GI50 [25]: > 100 µM (inactive) | GI50 [26]: > 100 µM (inactive) | GI50 [27]: > 100 µM (inactive) | GI50 [28]: > 100 µM (inactive) | GI50 [29]: > 100 µM (inactive) | GI50 [30]: > 100 µM (inactive) | GI50 [31]: > 100 µM (inactive) | GI50 [32]: > 100 µM (inactive) | GI50 [33]: > 100 µM (inactive) | GI50 [34]: > 100 µM (inactive) | GI50 [35]: > 100 µM (inactive) | GI50 [57]: > 100 µM (inactive) | GI50 [36]: > 100 µM (inactive) | GI50 [37]: > 100 µM (inactive) | GI50 [38]: > 100 µM (inactive) | GI50 [39]: > 100 µM (inactive) | GI50 [40]: > 100 µM (inactive) | GI50 [41]: > 100 µM (inactive) | GI50 [42]: > 100 µM (inactive) | GI50 [43]: > 100 µM (inactive) | GI50 [44]: > 100 µM (inactive) | GI50 [45]: > 100 µM (inactive) | GI50 [46]: 37.2 µM (inactive) | GI50 [49]: > 100 µM (inactive) | GI50 [50]: > 100 µM (inactive) | GI50 [51]: > 100 µM (inactive) | GI50 [53]: > 100 µM (inactive) | GI50 [54]: > 100 µM (inactive) | GI50 [55]: > 100 µM (inactive)
